Here are results for seven molecules from US20260144890A1, “ANTIBODY DRUG CONJUGATE COMPRISING NMT INHIBITOR CONJUGATED TO AN ANTIBODY” (MyricX Pharma Limited, priority 2024, published 2026).

For one series, the system named is SU-DHL-10 cell line. The experiment in a line: Cell cytotoxicity in SU-DHL-10 cell line (CTG, 72 h). Type of series: cell-based. The following applies: Homo sapiens, SU-DHL10, 72 h, 72 h treatment. The procedure:
Certain NMT inhibitors were tested in the SU-DHL-10 cell line (human B cell lymphoma). Compounds which show efficacy in this assay are expected to be useful as agents for treating or preventing hyperproliferative disorders such as cancer.
Cells were seeded in 96-well microplates and treated with compounds or cisplatin (as a positive control) at 9 increasing concentrations in technical triplicate. […] On day 1, 90 μL of various cell suspensions with the number of cells ranging from 5000-8000 cells/well were seeded into wells of a 96-well plate (Corning). The number of cells to be seeded was previously determined. • 2. All 96-wells plates with cells were placed in an incubator overnight at 37° C. with 5% CO2. • 3. On day 2, cells were observed under a microscope ensuring the cells treated with vehicle control were in good condition. • 4. A dilution series of the test compounds and cisplatin were prepared at 10× the final concentrations required. 10 μL/well of 10× compound solution was added to the corresponding plates. The final volume was 100 μL/well for all the plates. […]
Luminescence was recorded using an EnVision Multi Label Reader. […]
(LumTest article=luminescence in test article treated well; LumNone treated=luminescence in vehicle treated well; LumMedium control=luminescence in a well containing only medium and no cells; LumNone treated−LumMedium control was set as 100%).

Series [1] concerns BT474 breast cancer cells. Briefly: Orthotopic breast cancer xenograft model (BT474). In kind it is in vivo, mouse. The procedure: During the study, body weights were measured three times weekly for all animals. Animals were given Diet Gel for the entire duration on the study.
Series [2] has as its system VCaP human prostate cancer xenograft. Briefly: VCaP prostate cancer xenograft model. In kind it is in vivo, mouse. The procedure:
In this study, 144 mice were inoculated subcutaneously in the right front flank region with 1×10^7 viable VCaP tumour cells resuspended in 0.1 mL of PBS mixed with Matrigel (1:1) for tumour development on Study Day −20. 80 mice were assigned to 8 treatment groups when tumour volumes averaged ˜162.16 mm^3 on Study Day 0. Dosing commenced the following day and all animals were dosed intravenously with ADC Example 4, ifinatamab-deruxtecan (ifinatamab-Dxd) or unconjugated ifinatamab. All mice received two doses of test agent, on Study Day 1 and Study Day 8. The study was terminated on Study Day 30. • The 8 groups were assigned as follows: […]

A further series deals with LNCaP tumours. The experiment in a line: LNCaP prostate cancer xenograft model. The note with it: for Day 28 tumour volume (mean ± SEM) / Tumour growth inhibition (TGI, %): IV, Q7D (x3); for Tumour growth inhibition (TGI, %): day 28.
In series [3] the test system is JIMT-1 human breast xenograft. Type of series: in vivo. From the text: The study was terminated on the Study Day 60.
Series [4] relates to JIMT-1 human breast xenograft. Briefly: JIMT1 breast cancer xenograft model (Balb/c nude mice, ADC Example 1). In kind it is in vivo, mouse. The procedure: In this study, 72 mice were inoculated subcutaneously in the right front flank region with 1×10^7 viable JIMT-1 tumour cells resuspended in Matrigel (1:1) on Study Day −15. When tumours reached a tumour volume of approximately 120-150 mm^3, 60 mice with the most similarly sized tumours were randomly assigned to 6 treatment groups on Study Day 0. […] The study was terminated on Study Day 58. The dosing regimen was as follows:
The body weight of all mice in each group was measured and recorded three times weekly throughout the duration of the study. Moreover, the tumour volume was measured (mm^3) and recorded using digital calipers three times weekly throughout the duration of the study. In particular, the length, width, and depth of the tumour were each measured and used to calculate tumour volume (mm^3). The results are shown in FIG. 58, FIG. 59, and FIG. 60.

Read-outs that look alike come from different tables or passages of the source.

In general, IC50 refers to the concentration at which inhibition is half-maximal. A high value points to weaker potency in that assay.

Method for LNCaP tumours: A total of 84 male NOD SCID mice aged 5-8 weeks and weighing 25-30 g were used for the study.
• Duration of observation: 35 days. • Dosing volume: 5 mL/kg for all IV doses

In the series with SU-DHL-10 cell line, `CNCc1cnc2ccc(-c3ccc(F)c(F)c3OCCc3c(C(O)C(C)(C)C)nn(C)c3C)cn12` (single isomer, unassigned) [compound 13, 1-(4-(2-(2,3-difluoro-6-(3-((methylamino)methyl)imidazo[1,2-a]pyridin-6-yl)phenoxy)ethyl)-1,5-dimethyl-1H-pyrazol-3-yl)-2,2-dimethylpropan-1-ol] registered an IC50 of 0.7 nM.
For the molecule `CNCc1cnc2ccc(-c3ccc(F)c(F)c3OCCc3c(C(O)C(C)(C)C)nn(C)c3C)cn12` (centres unmarked) [NMT inhibitor 1, 1-(4-(2-(2,3-difluoro-6-(3-((methylamino)methyl)imidazo[1,2-a]pyridin-6-yl)phenoxy)ethyl)-1,5-dimethyl-1H-pyrazol-3-yl)-2,2-dimethylpropan-1-ol], the tumour size result in series [1] (2.0 mg/kg, 2 days dosing then 5 day holiday, stopped at day 13) is recorded as “reduced tumour size”. For the same molecule, the “body weights of mice” value in series [1] (trastuzumab and ADC 2.5 and 5 mg/kg, NMT inhibitor 1 2 mg/kg) is reported as “decreased significantly”.
ifinatamab: the “tumour volume compared to vehicle alone” value in series [2] (2.5 mg/kg) and in series [2] (5 mg/kg) was “no significant difference” in each case. For the same molecule, the “ΔTGI (Study Day 17)” value in series [2] (2.5 mg/kg QW x 2 weeks IV) is on record as 8.47%; in series [2] (5 mg/kg QW x 2 weeks IV) it was 12.44%. Besides, the “LNCaP tumour volume compared to vehicle” value with LNCaP tumours (5 mg/kg) and in the series on LNCaP tumours (10 mg/kg) was “no significant effect” each time. Further, the results for the “Day 28 tumour volume (mean ± SEM)” value in the series on LNCaP tumours (5 mg/kg) and with LNCaP tumours (10 mg/kg) were 551.4 ± 73.1 mm^3 and 666.56 ± 103.2 mm^3, respectively. Besides, the “Tumour growth inhibition (TGI, %)” value in the series on LNCaP tumours (5 mg/kg) was 30.6%; in the series on LNCaP tumours (10 mg/kg), 13.0%.
As to sacituzumab, the figures for the “tumour volume compared to vehicle alone” value in series [3] (2.5 mg/kg) and in series [3] (5 mg/kg) were “no significant difference” and “significant decrease”, respectively. For the same molecule, the “ΔTGI (Study Day 28)” value in series [3] (2.5 mg/kg QW x 2 weeks IV) is recorded as 12.11%; in series [3] (5 mg/kg QW x 2 weeks IV) it was 14.44%.
With sacituzumab govitecan, the “tumour volume compared to vehicle alone” value in series [3] (2.5 mg/kg) and in series [3] (5 mg/kg) was “significant decrease” in each case. Besides, the results for the “ΔTGI (Study Day 28)” value in series [3] (2.5 mg/kg QW x 2 weeks IV) and in series [3] (5 mg/kg QW x 2 weeks IV) were 13.13% and 23.39%, respectively. The efficacy of treatment entry in series [3] (Group 4, 5 mg/kg) is listed as “only partially efficacious”.
Consider trastuzumab emtansine, for which the “tumour volume compared to vehicle alone” value in series [4] (5 mg/kg IV on Study Days 0, 7, 28 and 35, agent alone) was “no decrease in tumour volume”. Also, in series [4] (5 mg/kg IV, agent alone), the “mice that completely responded (of 10)” value is given as “no mice” and the “mice that partially responded (of 10)” value is “no mice”.

B1: ifinatamab-DXd (conjugate, chains of the INN, looked up)
VH: QVQLVQSGAEVKKPGSSVKVSCKASGYTFTNYVMHWVRQAPGQGLEWMGYINPYNDDVKYNEKFKGRVTITADESTSTAYMELSSLRSEDTAVYYCARWGYYGSPLYYFDYWGQGTLVTVSS
VL: EIVLTQSPATLSLSPGERATLSCRASSRLIYMHWYQQKPGQAPRPLIYATSNLASGIPARFSGSGSGTDFTLTISSLEPEDFAVYYCQQWNSNPPTFGQGTKVEIK
modifications: deruxtecan (DXd) payload
On to B1, for which the “tumour volume compared to vehicle alone” value is reported as “no significant difference” in series [2] (2.5 mg/kg) and “significantly higher tumour volume” in series [2] (5 mg/kg). Besides, the “ΔTGI (Study Day 17)” value in series [2] (2.5 mg/kg QW x 2 weeks IV) is given as 5.24%; in series [2] (5 mg/kg QW x 2 weeks IV) it was 2.86%. For the same molecule, the figures for the “LNCaP tumour volume compared to vehicle” value in the series with LNCaP tumours (5 mg/kg) and in the series on LNCaP tumours (10 mg/kg) were “slowed the growth of LNCaP tumours to a lesser extent” and “significantly reduced the mean volume of LNCaP tumours”, respectively. Besides, the “Day 28 tumour volume (mean ± SEM)” value with LNCaP tumours (5 mg/kg) is recorded as 364.6 ± 51.7 mm^3; in the series on LNCaP tumours (10 mg/kg), 259.5 ± 50.3 mm^3. For the same molecule, the “Tumour growth inhibition (TGI, %)” value with LNCaP tumours (5 mg/kg) is reported as 58.8%; in the series with LNCaP tumours (10 mg/kg) it was 75.0%.
